According to ChEMBL document CHEMBL3596122, “Isoform-Selective and Stereoselective Inhibition of Hypoxia Inducible Factor-2” (J Med Chem, 2015):
Calls of active or inactive are those of the source. The calls are words filed in the database; no cut-off is given here.

What was measured:
[1] = biological target: T1, Endothelial PAS domain-containing protein 1 (Homo sapiens, UniProt Q99814)
Description: Binding affinity to wild type His6-Gbeta1-fused HIF-2alpha PAS-B domain (240 to 350) (unknown origin) expressed in Escherichia coli by ITC analysis

[2] = biological target: T1, Endothelial PAS domain-containing protein 1; remark: listed apart in the source
Description: Binding affinity to wild type GST-tagged HIF-2alpha PAS-B (240 to 350) (unknown origin) expressed in Escherichia coli assessed as inhibition of interaction with His6-Gbeta1/FLAG fused ARNT PAS-B after 4 hrs by AlphaScreen assay

[3] = biological target: T2, Endothelial PAS domain-containing protein 1 (Homo sapiens, UniProt Q99814, S304M)
T2 sequence (Q99814 whole entry S304M, the tested form may be a part): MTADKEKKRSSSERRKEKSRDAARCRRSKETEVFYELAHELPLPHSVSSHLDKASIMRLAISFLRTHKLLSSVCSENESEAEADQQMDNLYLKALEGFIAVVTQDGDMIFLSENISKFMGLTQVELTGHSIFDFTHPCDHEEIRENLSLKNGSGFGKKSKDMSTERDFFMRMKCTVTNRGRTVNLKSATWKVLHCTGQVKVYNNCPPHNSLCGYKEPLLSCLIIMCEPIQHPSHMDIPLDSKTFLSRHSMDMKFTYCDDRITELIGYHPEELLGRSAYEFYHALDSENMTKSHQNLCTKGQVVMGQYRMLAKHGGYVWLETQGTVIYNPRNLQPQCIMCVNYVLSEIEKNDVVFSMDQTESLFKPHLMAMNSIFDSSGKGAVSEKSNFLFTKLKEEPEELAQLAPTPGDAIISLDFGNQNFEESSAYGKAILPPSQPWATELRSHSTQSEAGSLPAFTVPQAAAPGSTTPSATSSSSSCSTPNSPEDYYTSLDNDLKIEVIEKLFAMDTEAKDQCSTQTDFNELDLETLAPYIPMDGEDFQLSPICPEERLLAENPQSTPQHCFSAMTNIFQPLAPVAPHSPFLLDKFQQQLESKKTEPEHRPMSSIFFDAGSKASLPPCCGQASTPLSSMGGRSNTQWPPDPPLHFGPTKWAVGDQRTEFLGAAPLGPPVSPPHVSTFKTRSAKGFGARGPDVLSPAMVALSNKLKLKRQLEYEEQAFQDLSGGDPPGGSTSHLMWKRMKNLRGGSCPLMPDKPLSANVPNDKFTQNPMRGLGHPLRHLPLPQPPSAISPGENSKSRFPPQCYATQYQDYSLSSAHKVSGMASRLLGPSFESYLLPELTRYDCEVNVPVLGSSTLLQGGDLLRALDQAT

[4] = biological target: Hypoxia-inducible factor 1-alpha (Homo sapiens, UniProt Q16665); test: Binding affinity to wild type GST-fused HIF-1alpha PAS-B domain (238 to 349) (unknown origin) expressed in Escherichia coli assessed as compound-protein complex formation by ITC analysis
Sequence of Hypoxia-inducible factor 1-alpha (Q16665 whole entry, the tested form may be a part): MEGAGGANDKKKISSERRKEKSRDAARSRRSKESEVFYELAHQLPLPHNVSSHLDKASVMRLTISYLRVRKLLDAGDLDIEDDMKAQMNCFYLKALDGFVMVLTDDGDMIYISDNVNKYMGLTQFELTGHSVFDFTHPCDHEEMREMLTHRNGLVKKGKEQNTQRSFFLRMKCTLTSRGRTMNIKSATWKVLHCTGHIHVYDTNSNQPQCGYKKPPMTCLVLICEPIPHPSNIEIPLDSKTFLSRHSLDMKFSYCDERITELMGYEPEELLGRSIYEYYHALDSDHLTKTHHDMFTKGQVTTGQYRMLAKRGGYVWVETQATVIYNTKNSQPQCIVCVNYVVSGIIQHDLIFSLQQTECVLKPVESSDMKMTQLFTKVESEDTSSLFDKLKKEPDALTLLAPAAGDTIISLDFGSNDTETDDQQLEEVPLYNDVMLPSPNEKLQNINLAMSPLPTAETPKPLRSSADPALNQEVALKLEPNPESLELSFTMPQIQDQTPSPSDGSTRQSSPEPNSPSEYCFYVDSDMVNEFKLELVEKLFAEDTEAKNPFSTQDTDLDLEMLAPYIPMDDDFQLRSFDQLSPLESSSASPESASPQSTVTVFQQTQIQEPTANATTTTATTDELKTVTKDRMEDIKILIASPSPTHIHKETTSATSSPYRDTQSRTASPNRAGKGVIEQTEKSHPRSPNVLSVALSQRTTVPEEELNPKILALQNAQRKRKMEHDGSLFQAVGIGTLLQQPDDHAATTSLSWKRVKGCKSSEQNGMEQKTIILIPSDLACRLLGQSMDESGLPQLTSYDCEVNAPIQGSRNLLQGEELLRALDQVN

[5] = biological target: T2, Endothelial PAS domain-containing protein 1; test: Binding affinity to His6-Gbeta1-fused HIF-2alpha PAS-B domain S304M mutant (240 to 350) (unknown origin) expressed in Escherichia coli by ITC analysis
Hep 3B2 = test: Effect on HIF-1-mediated PGK1 mRNA expression in human Hep3B cells at 0.01 to 10 uM by RT-PCR analysis; type: cell-based
[6] = biological target: T1, Endothelial PAS domain-containing protein 1; test: Inhibition of HIF-2alpha in human Hep3B cells assessed as downregulation of EPO mRNA expression by RT-PCR analysis
[7] = biological target: T1, Endothelial PAS domain-containing protein 1; details: Hep 3B2, 0.01 to 10 uM
Description: Inhibition of HIF-2alpha in human Hep3B cells assessed as downregulation of EPO mRNA expression at 0.01 to 10 uM by RT-PCR analysis

T1 sequence (Q99814 whole entry, the tested form may be a part): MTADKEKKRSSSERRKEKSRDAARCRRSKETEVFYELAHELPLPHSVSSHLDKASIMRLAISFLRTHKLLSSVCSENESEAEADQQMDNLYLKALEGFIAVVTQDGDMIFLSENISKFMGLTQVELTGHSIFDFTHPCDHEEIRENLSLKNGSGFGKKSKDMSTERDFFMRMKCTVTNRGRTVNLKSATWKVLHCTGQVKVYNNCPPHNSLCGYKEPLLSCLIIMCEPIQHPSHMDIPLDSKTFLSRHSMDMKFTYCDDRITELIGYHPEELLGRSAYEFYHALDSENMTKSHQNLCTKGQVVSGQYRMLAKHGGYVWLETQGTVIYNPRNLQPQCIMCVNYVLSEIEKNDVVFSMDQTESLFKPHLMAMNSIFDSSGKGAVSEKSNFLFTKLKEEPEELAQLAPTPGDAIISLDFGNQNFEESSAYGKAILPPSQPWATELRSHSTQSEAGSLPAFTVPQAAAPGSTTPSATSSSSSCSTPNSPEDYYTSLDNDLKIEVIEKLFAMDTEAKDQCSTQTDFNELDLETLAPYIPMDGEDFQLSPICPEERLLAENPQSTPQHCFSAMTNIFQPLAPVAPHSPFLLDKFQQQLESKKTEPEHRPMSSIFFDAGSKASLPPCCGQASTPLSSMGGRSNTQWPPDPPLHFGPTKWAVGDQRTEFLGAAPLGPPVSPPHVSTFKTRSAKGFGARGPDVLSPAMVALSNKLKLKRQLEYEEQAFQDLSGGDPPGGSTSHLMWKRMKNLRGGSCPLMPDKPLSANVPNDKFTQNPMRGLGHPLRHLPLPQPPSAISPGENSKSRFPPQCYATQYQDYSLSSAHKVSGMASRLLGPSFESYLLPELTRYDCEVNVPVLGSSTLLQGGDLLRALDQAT

SMILES	Kd [1]	IC50 [2]	IC50 [3]	also measured
Fc1ccc(Br)c(Cl)c1C1CC(c2cccc(Br)c2)Nc2nnnn21 (racemic)	411 nM	–	–	–
Clc1ccc(Br)cc1[C@H]1C[C@@H](c2cccc(Br)c2)Nc2nnnn21	125 nM	87 nM	23900 nM	–
CC(C)CC1CC(c2cccc(Br)c2)Nc2nnnn21 (racemic)	1170 nM	–	–	–
Fc1ccc(Br)c(F)c1[C@H]1C[C@@H](c2cccc(Br)c2)Nc2nnnn21	34 nM	32 nM	3800 nM	–
Brc1cccc(C2CC(c3cccc(Br)c3)n3nnnc3N2)c1 (racemic)	70 nM	–	–	–
Fc1c(Br)ccc(Br)c1C1CC(c2cccc(Br)c2)Nc2nnnn21 (racemic)	240 nM	–	–	–
Fc1cc(Br)cc([C@@H]2C[C@H](c3cccc(Br)c3)n3nnnc3N2)c1	23 nM	43 nM	14500 nM	Kd [4]: > 5000 nM; Kd [5]: 2000 nM; Activity (Hep 3B2): inactive; IC50 [6]: < 1000 nM
Clc1ccccc1C1CC(c2cccc(Br)c2)Nc2nnnn21 (racemic)	361 nM	–	–	–
Fc1cc(Br)cc([C@@H]2C[C@H](c3ccccc3)n3nnnc3N2)c1	165 nM	97 nM	10100 nM	–
Fc1ccc(F)c(C2CC(c3cccc(Br)c3)Nc3nnnn32)c1F (racemic)	393 nM	–	–	–
Brc1cccc([C@H]2C[C@@H](c3ccccc3Br)n3nnnc3N2)c1	> 2000 nM	28300 nM	> 30000 nM	–
Clc1ccccc1[C@@H]1C[C@H](c2cccc(Br)c2)Nc2nnnn21	> 2000 nM	> 30000 nM	> 30000 nM	–
Clc1cccc(C2CC(c3cccc(Br)c3)Nc3nnnn32)c1 (racemic)	116 nM	–	–	–
Fc1c(Br)ccc(Cl)c1C1CC(c2cccc(Br)c2)Nc2nnnn21 (racemic)	85 nM	–	–	–
Fc1cc(Br)cc(C2CC(c3cccc(Br)c3)n3nnnc3N2)c1 (racemic)	28 nM	–	–	–
Fc1ccc(Br)c(F)c1[C@@H]1C[C@H](c2cccc(Br)c2)Nc2nnnn21	> 2000 nM	22300 nM	> 30000 nM	–
Fc1cc(Br)cc([C@H]2C[C@@H](c3ccccc3)n3nnnc3N2)c1	> 2000 nM	> 30000 nM	> 30000 nM	–
Fc1c(Cl)ccc(Cl)c1C1CC(c2cccc(Br)c2)Nc2nnnn21 (racemic)	194 nM	–	–	–
Brc1cccc([C@@H]2C[C@H](c3cccc(Br)c3)n3nnnc3N2)c1	63 nM	112 nM	> 30000 nM	–
Fc1cc(Br)cc(C2CC(c3ccccc3)n3nnnc3N2)c1 (racemic)	216 nM	–	–	–
Brc1cccc([C@H]2C[C@@H](c3cccc(Br)c3)n3nnnc3N2)c1	> 2000 nM	> 30000 nM	> 30000 nM	–
Fc1ccc(I)cc1C1CC(c2cccc(Br)c2)Nc2nnnn21 (racemic)	159 nM	–	–	–

Now from value to compound, other results behind:

Kd [1]	IC50 [2]	IC50 [3]	SMILES	also measured
38 nM	–	–	Fc1c(Cl)cccc1C1CC(c2cccc(Br)c2)Nc2nnnn21 (racemic)	–
766 nM	–	–	Brc1cccc(C2CC(c3ccccc3I)n3nnnc3N2)c1 (racemic)	–
360 nM	314 nM	18900 nM	Brc1cccc([C@@H]2C[C@H](c3ccccc3Br)n3nnnc3N2)c1	–
294 nM	195 nM	15900 nM	Clc1ccccc1[C@H]1C[C@@H](c2cccc(Br)c2)Nc2nnnn21	–
85 nM	–	–	Fc1ccc(Cl)c(F)c1C1CC(c2cccc(Br)c2)Nc2nnnn21 (racemic)	–
327 nM	–	–	Fc1ccccc1C1CC(c2cccc(Br)c2)Nc2nnnn21 (racemic)	–
126 nM	–	–	Clc1ccc(Br)cc1C1CC(c2cccc(Br)c2)Nc2nnnn21 (racemic)	–
400 nM	–	–	Brc1cccc(C2CC(c3ccccc3Br)n3nnnc3N2)c1 (racemic)	–
> 2000 nM	> 30000 nM	> 30000 nM	Fc1cc(Br)cc([C@H]2C[C@@H](c3cccc(Br)c3)n3nnnc3N2)c1	inhibition [7]: inactive
> 2000 nM	> 30000 nM	> 30000 nM	Clc1ccc(Br)cc1[C@@H]1C[C@H](c2cccc(Br)c2)Nc2nnnn21	–
49 nM	–	–	Fc1ccc(Br)c(F)c1C1CC(c2cccc(Br)c2)Nc2nnnn21 (racemic)	–
